Target: T1, human androgen receptor (Homo sapiens, UniProt P10275)
T1 construct: expressed in transfected cells; host or cells: CHO cells, cell line CHO-AR-pMMTV-LUC 1G12-A5-CA
T1 sequence (P10275 1-920): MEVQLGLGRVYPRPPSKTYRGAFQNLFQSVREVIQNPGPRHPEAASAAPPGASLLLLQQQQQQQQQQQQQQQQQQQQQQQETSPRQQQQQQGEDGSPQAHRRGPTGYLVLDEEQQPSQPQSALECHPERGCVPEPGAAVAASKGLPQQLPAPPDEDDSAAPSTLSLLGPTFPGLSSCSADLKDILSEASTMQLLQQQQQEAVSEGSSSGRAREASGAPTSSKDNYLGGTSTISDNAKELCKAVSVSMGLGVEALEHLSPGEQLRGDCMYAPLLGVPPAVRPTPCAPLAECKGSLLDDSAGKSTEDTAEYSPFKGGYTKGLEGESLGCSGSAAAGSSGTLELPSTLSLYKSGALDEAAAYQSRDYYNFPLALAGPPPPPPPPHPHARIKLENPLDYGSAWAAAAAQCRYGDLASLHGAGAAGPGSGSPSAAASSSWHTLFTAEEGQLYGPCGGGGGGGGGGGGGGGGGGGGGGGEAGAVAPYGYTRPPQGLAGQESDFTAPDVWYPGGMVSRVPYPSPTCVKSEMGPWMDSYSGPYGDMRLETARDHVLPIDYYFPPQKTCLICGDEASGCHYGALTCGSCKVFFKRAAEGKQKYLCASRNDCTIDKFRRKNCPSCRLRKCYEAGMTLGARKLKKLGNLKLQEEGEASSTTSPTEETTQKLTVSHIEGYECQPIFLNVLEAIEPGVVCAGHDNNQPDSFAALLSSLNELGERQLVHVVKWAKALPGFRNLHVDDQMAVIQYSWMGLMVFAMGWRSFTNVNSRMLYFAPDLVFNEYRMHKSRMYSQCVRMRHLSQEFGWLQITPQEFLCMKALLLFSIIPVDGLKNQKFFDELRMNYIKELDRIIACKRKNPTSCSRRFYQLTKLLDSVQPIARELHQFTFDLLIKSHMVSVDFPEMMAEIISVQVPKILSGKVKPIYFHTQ
Assay: androgenic activity (EC50, potency, efficacy), transactivation bioassay in CHO-AR-pMMTV-LUC cells in the presence of 0.1 μmol/l onapristone (Table 5)
Type: cell-based
Conditions: CHO-AR-pMMTV-LUC cells; for ago potency: potency expressed as percentage of DHT activity, in the presence of 0.1 μmol/l onapristone; for Emax: read-out: ago efficacy
Protocol: The androgenic activity (EC50, potency, and efficacy) of the compounds in Table 5 was determined in an in vitro bioassay of Chinese hamster ovary (CHO) cells stably transfected with the human androgen receptor expression plasmid and a reporter plasmid in which the MMTV promoter is linked to the luciferase reporter gene. The cell line CHO-AR-pMMTV-LUC 1G12-A5-CA is described in Schoonen et al. (J. Steroid Biochem. Moles. Biol. […]; 74: 213-222). The androgen receptor activity of compounds was determined in the presence of 0.1 μmol/l onapristone. The maximal efficacy in the presence of 100 nmol/l DHT was set as 100%. The potencies are expressed as percentage of DHT activity.

[1] = maximal intrinsic activity, activity in the presence of 100 nM DHT set at 1.00, 0.1 μmol/l onapristone

With `Cl.N#Cc1ccc2c(Sc3ccccc3[N+](=O)[O-])cn(Cc3ccccn3)c2c1` [Compound 120, 3-(2-Nitro-phenylsulfanyl)-1-pyridin-2-ylmethyl-1H-indol-6-carbonitrile monohydrochloride] the ago efficacy [1] was “++ (≧0.80)” and the ago potency was “++ (>5%)”.

In the case of `CNC(=O)c1ccc2c(Sc3ccccc3[N+](=O)[O-])cn(Cc3ccccn3)c2c1` [Compound 110, 3-(2-Nitro-phenylsulfanyl)-1-pyridin-2-ylmethyl-1H-indole-6-carboxylic acid methylamide], the Emax [1] is reported as 50 to 80% and the ago potency is reported as “+ (between 1% and 5%)”.

In the case of `NC(=O)c1ccc2c(Sc3ccccc3[N+](=O)[O-])cn(Cc3ccccn3)c2c1` [Compound 111, 3-(2-Nitro-phenylsulfanyl)-1-pyridin-2-ylmethyl-1H-indole-6-carboxylic acid amide], the Emax [1] is reported as 20 to 50% and the ago potency is reported as “± (between 0.1% and 1%)”.

In the case of `CCC(=O)Nc1ccc2c(Sc3ccccc3[N+](=O)[O-])cn(Cc3cc(F)cc(F)c3)c2c1` [Compound 99, N-[1-(3,5-Difluoro-benzyl)-3-(2-nitro-phenylsulfanyl)-1H-indol-6-yl]-propionamide], the Emax [1] is reported as 50 to 80% and the ago potency is reported as “± (between 0.1% and 1%)”.

With `CS(=O)(=O)Nc1ccc2c(Sc3ccccc3[N+](=O)[O-])cn(Cc3cc(F)cc(F)c3)c2c1` [Compound 106, N-[1-(3,5-Difluoro-benzyl)-3-(2-nitro-phenylsulfanyl)-1H-indol-6-yl]-methanesulfonamide] the Emax [1] was over 80% and the ago potency was “+ (between 1% and 5%)”.

`N#Cc1ccc2c(Sc3ccccc3[N+](=O)[O-])cn(Cc3ccncn3)c2c1` [Compound 124, 3-(2-Nitro-phenylsulfanyl)-1-pyrimidin-4-ylmethyl-1H-indole-6-carbonitrile] was tested, and the Emax [1] was over 80% and the ago potency was “++ (>5%)”.

For `O=C(NC1CC1)c1ccc2c(Sc3ccccc3[N+](=O)[O-])cn(Cc3cccnc3)c2c1` [Compound 114, 3-(2-Nitro-phenylsulfanyl)-1-pyridin-3-ylmethyl-1H-indole-6-carboxylic acid cyclopropylamide], the Emax [1] was over 80% and the ago potency was “+ (between 1% and 5%)”.

`COc1ccc2c(Sc3ccccc3[N+](=O)[O-])cn(Cc3ccncc3)c2c1` [Compound 93, 6-Methoxy-3-(2-nitro-phenylsulfanyl)-1-pyridin-4-ylmethyl-1H-indole] was tested, and the Emax [1] was 50 to 80% and the ago potency was “± (between 0.1% and 1%)”.

With `N#Cc1ccc2c(Sc3ccccc3[N+](=O)[O-])cn(Cc3ccncc3)c2c1` [Compound 122, 3-(2-Nitro-phenylsulfanyl)-1-pyridin-4-ylmethyl-1H-indole-6-carbonitrile] the Emax [1] was 50 to 80% and the ago potency was “+ (between 1% and 5%)”.

With `CC(=O)Nc1ccc2c(Sc3ccccc3[N+](=O)[O-])cn(Cc3cccnc3)c2c1` [Compound 103, N-[3-(2-Nitro-phenylsulfanyl)-1-pyridin-3-ylmethyl-1H-indol-6-yl]-acetamide] the Emax [1] was 50 to 80% and the ago potency was “+ (between 1% and 5%)”.

In the case of `CC(=O)Nc1ccc2c(Sc3ccccc3[N+](=O)[O-])cn(Cc3ccccn3)c2c1` [Compound 101, N-[3-(2-Nitro-phenylsulfanyl]-1-pyridin-2-ylmethyl-1H-indol-6-yl]-acetamide], the Emax [1] is reported as 50 to 80% and the ago potency is reported as “+ (between 1% and 5%)”.

For `CCC(=O)Nc1ccc2c(Sc3ccccc3[N+](=O)[O-])cn(Cc3ccccn3)c2c1` [Compound 102, N-[3-(2-Nitro-phenylsulfanyl)-1-pyridin-2-ylmethyl-1H-indol-6-yl]-propionamide], the Emax [1] was 50 to 80% and the ago potency was “+ (between 1% and 5%)”.

`N#Cc1ccc2c(Sc3ccccc3[N+](=O)[O-])cn(Cc3cncnc3)c2c1` [Compound 123, 3-(2-Nitro-phenylsulfanyl)-1-pyrimidin-5-ylmethyl-1H-indole-6-carbonitrile] was tested, and the Emax [1] was over 80% and the ago potency was “++ (>5%)”.

With `N#Cc1cccc(Cn2cc(Sc3ccccc3[N+](=O)[O-])c3ccc(C#N)cc32)c1` [Compound 125, 1-(3-Cyano-benzyl)-3-(2-nitro-phenylsulfanyl)-1H-indole-6-carbonitrile] the Emax [1] was over 80% and the ago potency was “+ (between 1% and 5%)”.

For `O=CNc1ccc2c(Sc3ccccc3[N+](=O)[O-])cn(Cc3cncnc3)c2c1` [Compound 118, N-[3-(2-Nitro-phenylsulfanyl)-1-pyrimidin-5-ylmethyl-1H-indol-6-yl]-formamide], the Emax [1] was 50 to 80% and the ago potency was “++ (>5%)”.

`O=[N+]([O-])c1ccccc1Sc1cn(Cc2cc(F)cc(F)c2)c2cc(NS(=O)(=O)c3ccsc3)ccc12` [Compound 107, Thiophene-3-sulfonic acid [1-(3,5-difluoro-benzyl)-3-(2-nitro-phenylsulfanyl)-1H-indol-6-yl]-amide] was tested, and the Emax [1] was over 80% and the ago potency was “+ (between 1% and 5%)”.

Source: patent US8124647B2 (priority 2002, dated 2012)
